Source: ChEMBL document CHEMBL3991601, “The target landscape of clinical kinase drugs” (Science, 2017)
The source made the active and inactive calls.

Key:
[1] = target: Insulin-like growth factor 1 receptor (Homo sapiens, UniProt P08069)
[2] = target: Glycogen synthase kinase-3 alpha (Homo sapiens, UniProt P49840)
TGF-beta receptor type-2 = TGF-beta receptor type-2 (Homo sapiens, UniProt P37173)
[3] = target: Dual specificity tyrosine-phosphorylation-regulated kinase 1A (Homo sapiens, UniProt Q13627)
[4] = target: Elongation factor Tu, mitochondrial (Homo sapiens, UniProt P49411)
[5] = target: Protein-tyrosine kinase 2-beta (Homo sapiens, UniProt Q14289)
Chain of Protein-tyrosine kinase 2-beta (Q14289 whole entry): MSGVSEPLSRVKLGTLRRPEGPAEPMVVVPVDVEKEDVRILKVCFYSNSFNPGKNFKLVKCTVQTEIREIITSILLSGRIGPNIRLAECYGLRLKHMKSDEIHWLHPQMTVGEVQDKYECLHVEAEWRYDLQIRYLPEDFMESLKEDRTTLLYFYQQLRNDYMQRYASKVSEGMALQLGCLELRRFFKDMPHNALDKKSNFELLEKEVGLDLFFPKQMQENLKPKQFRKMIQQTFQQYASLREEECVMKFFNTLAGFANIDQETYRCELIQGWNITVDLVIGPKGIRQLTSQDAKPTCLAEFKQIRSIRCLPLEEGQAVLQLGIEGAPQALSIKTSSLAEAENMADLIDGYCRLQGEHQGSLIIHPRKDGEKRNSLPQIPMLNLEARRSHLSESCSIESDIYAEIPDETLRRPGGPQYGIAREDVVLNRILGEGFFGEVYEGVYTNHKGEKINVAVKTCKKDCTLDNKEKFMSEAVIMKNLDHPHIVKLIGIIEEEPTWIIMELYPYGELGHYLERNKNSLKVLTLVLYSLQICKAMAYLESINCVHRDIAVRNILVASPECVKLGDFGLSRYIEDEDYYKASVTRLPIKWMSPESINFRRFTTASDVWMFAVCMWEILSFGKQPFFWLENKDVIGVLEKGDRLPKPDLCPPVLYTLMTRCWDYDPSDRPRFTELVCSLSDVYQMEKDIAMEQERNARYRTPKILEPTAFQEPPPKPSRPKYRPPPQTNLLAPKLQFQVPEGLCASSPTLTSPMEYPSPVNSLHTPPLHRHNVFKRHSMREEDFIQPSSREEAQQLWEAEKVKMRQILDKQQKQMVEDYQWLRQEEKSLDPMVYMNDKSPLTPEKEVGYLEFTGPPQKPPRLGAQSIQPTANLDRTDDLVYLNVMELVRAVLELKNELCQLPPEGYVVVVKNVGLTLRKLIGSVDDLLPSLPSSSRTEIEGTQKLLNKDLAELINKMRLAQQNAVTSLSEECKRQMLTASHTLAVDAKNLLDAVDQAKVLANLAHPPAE

GTP-binding protein 4 = GTP-binding protein 4 (Homo sapiens, UniProt Q9BZE4)
Ephrin type-B receptor 4 = target: T1, Ephrin type-B receptor 4 (Homo sapiens, UniProt P54760)
T1 sequence (P54760 whole entry): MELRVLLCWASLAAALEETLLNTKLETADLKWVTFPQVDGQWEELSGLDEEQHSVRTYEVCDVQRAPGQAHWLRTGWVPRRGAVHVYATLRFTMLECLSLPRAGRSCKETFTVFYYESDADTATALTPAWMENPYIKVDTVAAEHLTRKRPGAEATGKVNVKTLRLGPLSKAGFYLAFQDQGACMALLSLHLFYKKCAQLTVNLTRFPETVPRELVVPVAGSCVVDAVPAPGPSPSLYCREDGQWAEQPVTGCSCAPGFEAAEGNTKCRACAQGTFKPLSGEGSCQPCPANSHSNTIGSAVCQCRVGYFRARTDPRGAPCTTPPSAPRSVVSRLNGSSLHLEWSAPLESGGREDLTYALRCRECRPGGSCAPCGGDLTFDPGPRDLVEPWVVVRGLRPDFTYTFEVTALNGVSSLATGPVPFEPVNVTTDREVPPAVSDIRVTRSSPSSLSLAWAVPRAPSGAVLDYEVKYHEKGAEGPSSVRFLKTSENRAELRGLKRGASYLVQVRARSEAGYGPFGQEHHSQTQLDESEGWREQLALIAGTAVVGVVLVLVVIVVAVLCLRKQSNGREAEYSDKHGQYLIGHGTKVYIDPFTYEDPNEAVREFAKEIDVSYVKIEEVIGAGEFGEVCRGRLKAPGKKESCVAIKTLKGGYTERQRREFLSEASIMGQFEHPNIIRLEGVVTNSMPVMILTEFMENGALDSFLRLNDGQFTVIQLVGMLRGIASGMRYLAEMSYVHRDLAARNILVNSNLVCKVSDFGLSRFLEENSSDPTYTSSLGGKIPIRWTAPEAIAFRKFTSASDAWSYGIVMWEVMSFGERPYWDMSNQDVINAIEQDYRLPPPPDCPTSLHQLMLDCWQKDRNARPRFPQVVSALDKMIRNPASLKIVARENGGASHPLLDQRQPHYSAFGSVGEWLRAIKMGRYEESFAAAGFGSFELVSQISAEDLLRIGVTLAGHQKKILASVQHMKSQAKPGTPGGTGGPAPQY

[6] = target: T2, Mitogen-activated protein kinase kinase kinase 6 (Homo sapiens, UniProt O95382)
T2 sequence (O95382 whole entry): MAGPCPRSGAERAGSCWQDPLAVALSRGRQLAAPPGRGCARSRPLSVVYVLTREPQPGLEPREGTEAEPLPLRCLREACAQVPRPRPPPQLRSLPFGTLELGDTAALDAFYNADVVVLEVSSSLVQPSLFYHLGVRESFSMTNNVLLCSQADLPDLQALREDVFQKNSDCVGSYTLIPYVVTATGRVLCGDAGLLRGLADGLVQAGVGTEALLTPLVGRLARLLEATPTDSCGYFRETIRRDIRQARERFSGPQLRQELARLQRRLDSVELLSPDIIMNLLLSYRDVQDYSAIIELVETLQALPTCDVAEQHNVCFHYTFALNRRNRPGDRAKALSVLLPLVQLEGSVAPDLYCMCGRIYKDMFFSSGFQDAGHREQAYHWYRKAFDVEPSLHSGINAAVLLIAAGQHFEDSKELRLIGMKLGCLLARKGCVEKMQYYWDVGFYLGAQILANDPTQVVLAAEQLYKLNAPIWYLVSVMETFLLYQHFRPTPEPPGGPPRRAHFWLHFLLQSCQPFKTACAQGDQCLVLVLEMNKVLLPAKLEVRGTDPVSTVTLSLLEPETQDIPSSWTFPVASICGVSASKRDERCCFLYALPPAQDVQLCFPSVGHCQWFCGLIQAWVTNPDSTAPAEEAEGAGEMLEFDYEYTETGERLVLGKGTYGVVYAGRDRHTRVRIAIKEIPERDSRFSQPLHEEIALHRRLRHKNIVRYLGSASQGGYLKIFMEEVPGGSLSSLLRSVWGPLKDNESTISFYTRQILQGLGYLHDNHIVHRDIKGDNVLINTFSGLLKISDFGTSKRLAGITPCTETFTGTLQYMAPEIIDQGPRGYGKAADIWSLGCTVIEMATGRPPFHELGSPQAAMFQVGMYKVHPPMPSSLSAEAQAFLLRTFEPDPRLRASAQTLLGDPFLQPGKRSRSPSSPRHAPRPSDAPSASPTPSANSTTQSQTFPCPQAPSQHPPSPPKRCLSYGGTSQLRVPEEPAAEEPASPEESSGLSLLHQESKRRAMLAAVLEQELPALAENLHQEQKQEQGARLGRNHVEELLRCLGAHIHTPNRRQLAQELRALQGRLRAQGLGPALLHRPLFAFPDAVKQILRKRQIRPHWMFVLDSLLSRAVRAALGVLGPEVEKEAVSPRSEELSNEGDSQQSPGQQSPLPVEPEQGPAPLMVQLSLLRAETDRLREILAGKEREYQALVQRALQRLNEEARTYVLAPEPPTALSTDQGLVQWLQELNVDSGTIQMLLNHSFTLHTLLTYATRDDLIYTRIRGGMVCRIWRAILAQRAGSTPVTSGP

[7] = target: Myosin light chain kinase, smooth muscle (Homo sapiens, UniProt Q15746)
[8] = target: Platelet-derived growth factor receptor beta (Homo sapiens, UniProt P09619)
Chain of Platelet-derived growth factor receptor beta (P09619 whole entry): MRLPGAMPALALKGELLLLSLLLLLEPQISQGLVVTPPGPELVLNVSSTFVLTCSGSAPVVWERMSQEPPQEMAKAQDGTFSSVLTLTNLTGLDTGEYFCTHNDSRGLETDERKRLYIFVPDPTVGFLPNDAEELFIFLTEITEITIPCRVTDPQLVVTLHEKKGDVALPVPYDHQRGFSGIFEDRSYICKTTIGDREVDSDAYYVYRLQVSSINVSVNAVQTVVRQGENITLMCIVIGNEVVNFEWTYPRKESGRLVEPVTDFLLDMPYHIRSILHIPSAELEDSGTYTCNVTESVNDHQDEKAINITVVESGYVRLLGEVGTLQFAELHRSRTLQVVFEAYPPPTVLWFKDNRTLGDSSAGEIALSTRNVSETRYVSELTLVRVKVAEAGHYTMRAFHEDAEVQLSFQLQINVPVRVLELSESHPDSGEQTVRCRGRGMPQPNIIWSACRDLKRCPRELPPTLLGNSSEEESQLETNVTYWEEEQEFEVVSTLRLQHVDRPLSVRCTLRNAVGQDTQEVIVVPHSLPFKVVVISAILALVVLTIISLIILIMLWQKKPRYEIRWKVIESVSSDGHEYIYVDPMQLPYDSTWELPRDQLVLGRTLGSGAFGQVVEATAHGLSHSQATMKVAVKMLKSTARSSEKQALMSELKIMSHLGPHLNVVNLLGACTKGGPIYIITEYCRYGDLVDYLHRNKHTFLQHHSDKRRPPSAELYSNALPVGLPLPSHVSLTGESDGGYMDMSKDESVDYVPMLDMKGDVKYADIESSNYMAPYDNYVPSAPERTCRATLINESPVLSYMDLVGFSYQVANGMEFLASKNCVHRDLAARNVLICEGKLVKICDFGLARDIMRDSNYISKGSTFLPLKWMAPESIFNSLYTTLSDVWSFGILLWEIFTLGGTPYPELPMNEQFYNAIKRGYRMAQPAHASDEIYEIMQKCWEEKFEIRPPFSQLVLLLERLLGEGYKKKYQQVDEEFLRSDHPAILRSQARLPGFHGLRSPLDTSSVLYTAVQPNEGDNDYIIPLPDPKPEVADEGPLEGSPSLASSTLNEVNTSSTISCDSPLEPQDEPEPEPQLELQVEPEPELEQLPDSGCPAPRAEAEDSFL

[9] = target: Bone morphogenetic protein receptor type-1A (Homo sapiens, UniProt P36894)
[10] = target: Cyclin-dependent kinase 4 (Homo sapiens, UniProt P11802)
Chain of Cyclin-dependent kinase 4 (P11802 whole entry): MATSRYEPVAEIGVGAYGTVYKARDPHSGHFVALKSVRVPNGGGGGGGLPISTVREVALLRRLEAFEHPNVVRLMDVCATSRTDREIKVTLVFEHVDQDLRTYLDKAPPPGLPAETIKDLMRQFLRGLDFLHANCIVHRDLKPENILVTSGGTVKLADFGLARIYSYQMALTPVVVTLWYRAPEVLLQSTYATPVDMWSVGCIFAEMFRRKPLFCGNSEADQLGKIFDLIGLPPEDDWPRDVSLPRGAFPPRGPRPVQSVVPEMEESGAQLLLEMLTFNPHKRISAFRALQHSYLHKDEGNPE
Note: in the data inactive means no Kd found up to 30 µM.

Chain of Glycogen synthase kinase-3 alpha (P49840 whole entry): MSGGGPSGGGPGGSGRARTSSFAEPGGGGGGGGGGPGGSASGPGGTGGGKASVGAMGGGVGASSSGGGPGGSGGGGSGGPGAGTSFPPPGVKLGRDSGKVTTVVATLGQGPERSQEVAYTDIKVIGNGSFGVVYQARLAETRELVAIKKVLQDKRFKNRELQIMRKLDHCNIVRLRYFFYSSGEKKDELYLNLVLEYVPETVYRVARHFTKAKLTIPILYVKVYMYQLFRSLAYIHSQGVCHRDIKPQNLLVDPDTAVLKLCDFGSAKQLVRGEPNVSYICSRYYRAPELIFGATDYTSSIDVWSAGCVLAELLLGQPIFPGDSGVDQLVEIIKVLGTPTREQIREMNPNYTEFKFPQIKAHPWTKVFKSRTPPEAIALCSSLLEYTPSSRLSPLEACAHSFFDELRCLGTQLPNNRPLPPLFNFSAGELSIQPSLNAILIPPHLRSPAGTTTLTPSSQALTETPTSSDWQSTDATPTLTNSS
Chain of Insulin-like growth factor 1 receptor (P08069 31-736 limits assumed): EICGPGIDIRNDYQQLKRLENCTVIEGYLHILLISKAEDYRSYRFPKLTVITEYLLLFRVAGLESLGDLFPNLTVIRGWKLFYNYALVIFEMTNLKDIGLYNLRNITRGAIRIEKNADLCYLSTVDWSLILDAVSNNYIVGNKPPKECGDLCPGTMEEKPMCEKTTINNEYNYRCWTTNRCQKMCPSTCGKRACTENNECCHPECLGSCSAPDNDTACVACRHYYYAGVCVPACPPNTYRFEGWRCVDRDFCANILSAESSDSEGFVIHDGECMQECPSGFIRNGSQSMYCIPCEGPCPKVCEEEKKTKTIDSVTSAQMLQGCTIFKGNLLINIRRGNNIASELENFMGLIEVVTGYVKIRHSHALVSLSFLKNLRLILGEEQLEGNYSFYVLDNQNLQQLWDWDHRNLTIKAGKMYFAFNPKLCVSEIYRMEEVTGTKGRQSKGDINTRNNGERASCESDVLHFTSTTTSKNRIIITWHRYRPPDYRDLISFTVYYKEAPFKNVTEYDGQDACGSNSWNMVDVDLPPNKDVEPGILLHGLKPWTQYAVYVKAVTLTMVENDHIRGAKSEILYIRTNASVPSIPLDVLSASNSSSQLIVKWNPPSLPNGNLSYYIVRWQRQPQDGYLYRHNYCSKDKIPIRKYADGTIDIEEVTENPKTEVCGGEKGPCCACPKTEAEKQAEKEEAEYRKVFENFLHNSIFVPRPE
Chain of Insulin-like growth factor 1 receptor (P08069 741-1367 limits assumed): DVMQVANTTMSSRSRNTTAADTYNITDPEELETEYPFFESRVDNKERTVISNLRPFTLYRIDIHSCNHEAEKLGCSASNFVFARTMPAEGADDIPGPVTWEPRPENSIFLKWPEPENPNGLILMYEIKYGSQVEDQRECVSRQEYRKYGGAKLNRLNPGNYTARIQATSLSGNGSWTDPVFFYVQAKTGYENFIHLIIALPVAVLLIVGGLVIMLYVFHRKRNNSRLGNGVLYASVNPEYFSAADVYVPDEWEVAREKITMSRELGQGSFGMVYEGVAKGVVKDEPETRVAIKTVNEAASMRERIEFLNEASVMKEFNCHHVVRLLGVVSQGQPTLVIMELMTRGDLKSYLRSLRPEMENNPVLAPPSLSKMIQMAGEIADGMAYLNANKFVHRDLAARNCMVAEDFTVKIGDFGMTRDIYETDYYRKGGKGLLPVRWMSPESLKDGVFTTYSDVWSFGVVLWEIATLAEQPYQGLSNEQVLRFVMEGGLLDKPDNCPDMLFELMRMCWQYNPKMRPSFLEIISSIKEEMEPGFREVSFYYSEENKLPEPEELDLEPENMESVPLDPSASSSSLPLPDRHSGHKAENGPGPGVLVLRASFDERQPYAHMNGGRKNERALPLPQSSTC
Chain of TGF-beta receptor type-2 (P37173 whole entry): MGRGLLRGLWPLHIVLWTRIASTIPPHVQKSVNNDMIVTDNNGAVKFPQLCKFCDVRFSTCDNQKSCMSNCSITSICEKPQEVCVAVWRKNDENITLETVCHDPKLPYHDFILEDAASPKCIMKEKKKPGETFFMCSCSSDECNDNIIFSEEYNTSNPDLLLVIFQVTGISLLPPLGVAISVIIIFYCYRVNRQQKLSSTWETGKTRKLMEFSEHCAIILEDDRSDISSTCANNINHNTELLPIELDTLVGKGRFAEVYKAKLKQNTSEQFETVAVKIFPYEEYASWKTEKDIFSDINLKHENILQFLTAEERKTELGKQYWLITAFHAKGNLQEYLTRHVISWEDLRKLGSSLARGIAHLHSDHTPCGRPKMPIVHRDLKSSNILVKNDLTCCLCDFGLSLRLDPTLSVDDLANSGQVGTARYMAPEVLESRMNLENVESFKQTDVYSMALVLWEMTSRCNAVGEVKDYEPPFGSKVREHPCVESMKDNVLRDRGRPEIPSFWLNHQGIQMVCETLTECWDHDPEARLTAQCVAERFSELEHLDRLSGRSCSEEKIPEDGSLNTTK

| Structure (SMILES) | Kd [1] | Kd [2] | Kd (TGF-beta receptor type-2) | Kd [3] | Kd [4] | Kd [5] | Kd (GTP-binding protein 4) | Kd (Ephrin type-B receptor 4) | Kd [6] | Kd [7] | Kd [8] | Kd [9] | Kd [10] |
| --- | --- | --- | --- | --- | --- | --- | --- | --- | --- | --- | --- | --- | --- |
| C=CCN(/C=C1/C(=O)O[C@H](COC)[C@@]2(C)C1=C(O)C(=O)C1=C2[C@H](OC(C)=O)C[C@]2(C)C(=O)CC[C@@H]12)CC=C [SONOLISIB] | > 30 µM (inactive) | > 30 µM (inactive) | > 30 µM (inactive) | > 30 µM (inactive) | > 30 µM (inactive) | > 30 µM (inactive) | > 30 µM (inactive) | > 30 µM (inactive) | > 30 µM (inactive) | > 30 µM (inactive) | > 30 µM (inactive) | > 30 µM (inactive) | > 30 µM (inactive) |
| CC(C)(O)CC(=O)NCCn1ccc2ncnc(Nc3ccc(Oc4cccc(C(F)(F)F)c4)c(Cl)c3)c21 [TAK-285] | > 30 µM (inactive) | > 30 µM (inactive) | > 30 µM (inactive) | > 30 µM (inactive) | > 30 µM (inactive) | > 30 µM (inactive) | > 30 µM (inactive) | > 30 µM (inactive) | > 30 µM (inactive) | > 30 µM (inactive) | > 30 µM (inactive) | > 30 µM (inactive) | > 30 µM (inactive) |
| COc1cc2ncnc3c2cc1OCCCCCN(C)Cc1ccc(Br)cc1N3 [JNJ-26483327] | > 30 µM (inactive) | > 30 µM (inactive) | > 30 µM (inactive) | > 30 µM (inactive) | > 30 µM (inactive) | > 30 µM (inactive) | > 30 µM (inactive) | > 30 µM (inactive) | > 30 µM (inactive) | > 30 µM (inactive) | > 30 µM (inactive) | > 30 µM (inactive) | > 30 µM (inactive) |
| Cc1c(Cn2c(C)nc3c(C(=O)O)cc(N4CCOCC4)cc32)cccc1C(F)(F)F [GSK-2636771] | > 30 µM (inactive) | > 30 µM (inactive) | > 30 µM (inactive) | > 30 µM (inactive) | > 30 µM (inactive) | > 30 µM (inactive) | > 30 µM (inactive) | > 30 µM (inactive) | > 30 µM (inactive) | > 30 µM (inactive) | > 30 µM (inactive) | > 30 µM (inactive) | > 30 µM (inactive) |
| COc1ccc2c(OCc3nnc4ccc(-c5ccccc5)nn34)ccnc2c1 [AMG-208] | > 30 µM (inactive) | > 30 µM (inactive) | > 30 µM (inactive) | > 30 µM (inactive) | > 30 µM (inactive) | > 30 µM (inactive) | > 30 µM (inactive) | > 30 µM (inactive) | > 30 µM (inactive) | > 30 µM (inactive) | > 30 µM (inactive) | > 30 µM (inactive) | > 30 µM (inactive) |
| C#Cc1cccc(Nc2ncnc3cc4c(cc23)OCCOCCOCCO4)c1 [ICOTINIB] | > 30 µM (inactive) | > 30 µM (inactive) | > 30 µM (inactive) | > 30 µM (inactive) | > 30 µM (inactive) | > 30 µM (inactive) | > 30 µM (inactive) | > 30 µM (inactive) | > 30 µM (inactive) | > 30 µM (inactive) | > 30 µM (inactive) | > 30 µM (inactive) | > 30 µM (inactive) |

Second part, the compound after the results:

| Kd [1] | Kd [2] | Kd (TGF-beta receptor type-2) | Kd [3] | Kd [4] | Kd [5] | Kd (GTP-binding protein 4) | Kd (Ephrin type-B receptor 4) | Kd [6] | Kd [7] | Kd [8] | Kd [9] | Kd [10] | Structure (SMILES) |
| --- | --- | --- | --- | --- | --- | --- | --- | --- | --- | --- | --- | --- | --- |
| > 30 µM (inactive) | > 30 µM (inactive) | > 30 µM (inactive) | > 30 µM (inactive) | > 30 µM (inactive) | > 30 µM (inactive) | > 30 µM (inactive) | > 30 µM (inactive) | > 30 µM (inactive) | > 30 µM (inactive) | > 30 µM (inactive) | > 30 µM (inactive) | > 30 µM (inactive) | O=C(Nc1ccc(OC(F)(F)F)cc1)c1sccc1NCc1ccnc2ccccc12 [OSI-930] |
| > 30 µM (inactive) | > 30 µM (inactive) | > 30 µM (inactive) | > 30 µM (inactive) | > 30 µM (inactive) | > 30 µM (inactive) | > 30 µM (inactive) | > 30 µM (inactive) | > 30 µM (inactive) | > 30 µM (inactive) | > 30 µM (inactive) | > 30 µM (inactive) | > 30 µM (inactive) | COc1cc2ncnc(Nc3ccc(F)c(Cl)c3)c2cc1NC(=O)/C=C/CN1CCCCC1 [DACOMITINIB ANHYDROUS] |
| > 30 µM (inactive) | > 30 µM (inactive) | > 30 µM (inactive) | > 30 µM (inactive) | > 30 µM (inactive) | > 30 µM (inactive) | > 30 µM (inactive) | > 30 µM (inactive) | > 30 µM (inactive) | > 30 µM (inactive) | > 30 µM (inactive) | > 30 µM (inactive) | > 30 µM (inactive) | O=C(NC[C@H](O)CO)c1ccncc1Nc1ccc(I)cc1F [PIMASERTIB] |
